# Numbered stars: 1 amine (or outer) side, 2 acyl side, 3 side chain; on linkers, the order of the positions; unused ones are H or OH. Bridge positions count the residues as written; N and C are the ends. Square brackets hold non-standard residues; d marks the D form. Peptide text beside a SMILES is read from it. Phe(4-guanidino) = N=C(N)Nc1ccc(C[C@H](N)C(=O)O)cc1; Trp(7-aza) = N[C@@H](Cc1c[nH]c2ncccc12)C(=O)O; Leu(3R-OH) = CC(C)[C@@H](O)[C@H](N)C(=O)O; X1 = C[C@@](N[*:1])(C(=O)[*:2])c1ccccc1; X7 = O=C(CCSCc1cccc(CSCCN[*:1])c1)[*:2]; 1Nal = N[C@@H](Cc1cccc2ccccc12)C(=O)O; mXylylene = c1cc(C[*:1])cc(C[*:2])c1; Bta = N[C@@H](Cc1csc2ccccc12)C(=O)O; Val(3-OH) = CC(C)(O)[C@H](N)C(=O)O; Aad = N[C@@H](CCCC(=O)O)C(=O)O; Chg = N[C@H](C(=O)O)C1CCCCC1; Tle = CC(C)(C)[C@H](N)C(=O)O; αMeV = CC(C)[C@](C)(N)C(=O)O; NMeV = CN[C@H](C(=O)O)C(C)C; S5 = C=CCCC[C@](C)(N)C(=O)O; hSer = N[C@@H](CCO)C(=O)O; Iva = CC[C@](C)(N)C(=O)O; Ac5c = NC1(C(=O)O)CCCC1; Nva = CCC[C@H](N)C(=O)O; Thp = NC1(C(=O)O)CCOCC1; Ac4c = NC1(C(=O)O)CCC1; Aib = CC(C)(N)C(=O)O; Mpa = O=C(O)CCS
# Biological target: human PCSK9 / human LDLR EGFa domain interaction (Homo sapiens, UniProt Q8NBP7)
# Test: TR-FRET assay of inhibition of the PCSK9-LDLR protein-protein interaction
# Format: binding
# Conditions: 20 nM avitag-biotinylated human PCSK9, 20 nM his-tagged human LDLR EGFa domain, 2 hours, room temperature
# Protocol: A time-resolved fluorescence resonance energy (TR-FRET) assay was used to measure inhibition of the PCSK9-LDLR protein-protein interaction. Briefly, 20 nM avitag-biotinylated human PCSK9 was incubated with 20 nM his-tagged human LDLR EGFa domain in the presence of 5 nM LANCE Ulight Streptavidin (Perkin Elmer) and 5 nM europium-Anti-6×His (Perkin Elmer) for 2 hours covered at room temperature in buffer containing 50 mM HEPES, 150 mM NaCl, 5 mM CaCl2), 0.01% BSA and 0.01% Surfactant P20. Compounds were tested in dose-response and concentrations giving half-maximal inhibition calculated using a 4-parameter fit equation.
# Sequence of human PCSK9 / human LDLR EGFa domain interaction (Q8NBP7 153-692): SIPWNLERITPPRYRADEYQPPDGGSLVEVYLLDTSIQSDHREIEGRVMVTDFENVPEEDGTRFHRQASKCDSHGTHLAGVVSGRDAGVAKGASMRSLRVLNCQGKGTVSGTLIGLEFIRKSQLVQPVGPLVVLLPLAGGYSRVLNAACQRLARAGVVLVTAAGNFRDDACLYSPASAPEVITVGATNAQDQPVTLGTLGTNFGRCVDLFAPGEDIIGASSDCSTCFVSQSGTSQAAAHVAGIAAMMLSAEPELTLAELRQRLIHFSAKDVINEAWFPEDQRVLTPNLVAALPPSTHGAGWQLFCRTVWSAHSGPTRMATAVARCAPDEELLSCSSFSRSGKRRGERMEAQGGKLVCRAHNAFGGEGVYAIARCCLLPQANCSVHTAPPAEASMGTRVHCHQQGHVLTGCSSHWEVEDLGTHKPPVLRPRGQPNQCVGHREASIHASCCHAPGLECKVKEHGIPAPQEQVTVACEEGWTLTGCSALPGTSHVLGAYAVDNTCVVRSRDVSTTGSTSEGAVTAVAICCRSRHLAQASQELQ
# Sequence of human PCSK9 / human LDLR EGFa domain interaction (Q8NBP7 31-152 partner limits assumed): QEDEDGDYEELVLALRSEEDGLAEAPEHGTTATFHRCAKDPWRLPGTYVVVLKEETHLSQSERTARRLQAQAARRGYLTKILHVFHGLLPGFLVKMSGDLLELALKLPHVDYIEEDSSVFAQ
row,Compound,IC50 [µM]
1,CCC[C@@H]1NC(=O)[C@H](Cc2c[nH]c3ncccc23)NC(=O)[C@H](CC(N)=O)NC(=O)[C@H](Cc2c[nH]cn2)NC(=O)[C@H](Cc2ccc(O)cc2)NC(=O)[C@H](C(C)(C)C)NC(=O)CCSCc2cccc(c2)CSC[C@@H](C(N)=O)NC(=O)[C@H]([C@@H](C)O)NC(=O)[C@H](CCC)NC(=O)[C@H](Cc2ccc(O)cc2)NC(=O)[C@H](CCC(=O)O)NC1=O [Compound 287] ([Mpa][Tle]YHN[Trp(7-aza)][Nva]EY[Nva]TC-NH2; linker 1-12 via mXylylene),0.1 to 1
2,CCC[C@@H]1NC(=O)[C@H](Cc2cccc3ccccc23)NC(=O)[C@H]([C@@H](C)O)NC(=O)[C@H](Cc2c[nH]cn2)NC(=O)[C@H](Cc2ccc(O)cc2)NC(=O)[C@H](C(C)(C)C)NC(=O)CCSCc2cccc(c2)CSC[C@@H](C(N)=O)NC(=O)[C@H]([C@@H](C)O)NC(=O)[C@H](CCC)NC(=O)[C@H](Cc2ccc(O)cc2)NC(=O)[C@H](CCC(=O)O)NC1=O [Compound 277] ([Mpa][Tle]YHT[1Nal][Nva]EY[Nva]TC-NH2; linker 1-12 via mXylylene),0.1 to 1
3,CC(=O)N[C@H]1CSCc2cccc(c2)CSC[C@H](C(N)=O)NC(=O)[C@H]([C@@H](C)O)NC(=O)[C@](C)(C(C)C)NC(=O)[C@H](Cc2ccc(O)cc2)NC(=O)[C@H](C)NC(=O)C2(CCC2)NC(=O)[C@H](Cc2c[nH]c3ncccc23)NC(=O)[C@H](C(C)(C)O)NC(=O)[C@@H]2CCCN2C(=O)[C@H](Cc2ccc(O)cc2)NC(=O)[C@H](C(C)(C)C)NC1=O [Compound 194] (Ac-C[Tle]YP[Val(3-OH)][Trp(7-aza)][Ac4c]AY[αMeV]T[dC]-NH2; linker 1-12 via mXylylene),0.001 to 0.1
4,CCC[C@@H]1NC(=O)[C@H](Cc2c[nH]c3ncccc23)NC(=O)[C@H]([C@@H](C)O)NC(=O)[C@@H]2CCCN2C(=O)[C@H](Cc2ccc(O)cc2)NC(=O)[C@H](C(C)(C)C)NC(=O)CCSCc2cccc(c2)CSC[C@@H](C(N)=O)NC(=O)[C@H]([C@@H](C)O)NC(=O)[C@H](CCC)NC(=O)[C@H](Cc2ccc(O)cc2)NC(=O)[C@H](C)NC1=O [Compound 157] ([Mpa][Tle]YPT[Trp(7-aza)][Nva]AY[Nva]TC-NH2; linker 1-12 via mXylylene),0.1 to 1
5,C[C@@H](O)[C@@H]1NC(=O)[C@H](Cc2c[nH]cn2)NC(=O)[C@H](Cc2ccc(O)cc2)NC(=O)[C@H](C(C)(C)C)NC(=O)CCSCc2cccc(c2)CSC[C@@H](C(N)=O)NC(=O)[C@H]([C@@H](C)O)NC(=O)[C@](C)(c2ccccc2)NC(=O)[C@H](Cc2ccc(O)cc2)NC(=O)[C@H](CCC(=O)O)NC(=O)C(C)(C)NC(=O)[C@H](Cc2c[nH]c3ncccc23)NC1=O [Compound 293] ([Mpa][Tle]YHT[Trp(7-aza)][Aib]EY[X1]TC-NH2; linker 1-12 via mXylylene),0.001 to 0.1
6,CCC[C@@H]1NC(=O)[C@H](Cc2c[nH]c3ncccc23)NC(=O)[C@H]([C@H](O)C(C)C)NC(=O)[C@H](Cc2c[nH]cn2)NC(=O)[C@H](Cc2ccc(O)cc2)NC(=O)[C@H](C(C)(C)C)NC(=O)CCSCc2cccc(c2)CSC[C@@H](C(N)=O)NC(=O)[C@H]([C@@H](C)O)NC(=O)[C@H](CCC)NC(=O)[C@H](Cc2ccc(O)cc2)NC(=O)[C@H](CCC(=O)O)NC1=O [Compound 305] ([Mpa][Tle]YH[Leu(3R-OH)][Trp(7-aza)][Nva]EY[Nva]TC-NH2; linker 1-12 via mXylylene),1 to 21
7,CCC[C@@H]1NC(=O)[C@H](Cc2ccc(O)cc2)NC(=O)[C@H](CCC(=O)O)NC(=O)C2(CCOCC2)NC(=O)[C@H](Cc2c[nH]c3ncccc23)NC(=O)[C@H]([C@@H](C)O)NC(=O)[C@H](Cc2c[nH]cn2)NC(=O)[C@H](Cc2ccc(O)cc2)NC(=O)[C@H](C(C)(C)C)NC(=O)CCSCc2cccc(c2)CSC[C@@H](C(N)=O)NC(=O)[C@H]([C@@H](C)O)NC1=O [Compound 300] ([Mpa][Tle]YHT[Trp(7-aza)][Thp]EY[Nva]TC-NH2; linker 1-12 via mXylylene),0.1 to 1
8,CCC[C@@H]1NC(=O)[C@H](Cc2ccc(O)cc2)NC(=O)[C@H](C)NC(=O)C(C)(C)NC(=O)[C@H](Cc2c[nH]c3ncccc23)NC(=O)[C@H]([C@@H](C)O)NC(=O)[C@@H]2CCCN2C(=O)[C@H](Cc2ccc(O)cc2)NC(=O)[C@H](C(C)(C)C)NC(=O)[C@@H](NC(C)=O)CCCC(=O)NCCCC[C@@H](C(N)=O)NC(=O)C(C)(C)NC1=O [Compound 049] (Ac-[Aad][Tle]YPT[Trp(7-aza)][Aib]AY[Nva][Aib]K-NH2; lactam 1-12),0.1 to 1
9,CC(C)[C@H]1C(=O)N[C@@H](Cc2ccccc2)C(=O)N2CCC[C@H]2C(=O)N[C@@H]([C@@H](C)O)C(=O)N[C@@H](Cc2cccc3ccccc23)C(=O)NC(C)(C)C(=O)N[C@@H](C)C(=O)N[C@@H](Cc2ccccc2)C(=O)N[C@@](C)(C(C)C)C(=O)N[C@@H](C)C(=O)NCCSCc2cccc(c2)CSCCC(=O)N1C [Compound 143] (cyclo([1Nal][Aib]AF[αMeV]A[X7][NMeV]FPT)),1 to 21

# The next lines start with the values.
row,IC50 [µM],Compound
1,0.1 to 1,CCC[C@@H]1NC(=O)[C@H](Cc2csc3ccccc23)NC(=O)[C@H]([C@@H](C)O)NC(=O)[C@H](Cc2c[nH]cn2)NC(=O)[C@H](Cc2ccc(O)cc2)NC(=O)[C@H](C(C)(C)C)NC(=O)CCSCc2cccc(c2)CSC[C@@H](C(N)=O)NC(=O)[C@H]([C@@H](C)O)NC(=O)[C@H](CCC)NC(=O)[C@H](Cc2ccc(O)cc2)NC(=O)[C@H](CCC(=O)O)NC1=O [Compound 275] ([Mpa][Tle]YHT[Bta][Nva]EY[Nva]TC-NH2; linker 1-12 via mXylylene)
2,1 to 21,CCC[C@@H]1NC(=O)[C@H](Cc2c[nH]c3ncccc23)NC(=O)[C@H]([C@@H](C)O)NC(=O)[C@H](Cc2c[nH]cn2)NC(=O)[C@H](Cc2ccc(O)cc2)NC(=O)[C@H](C(C)(C)C)NC(=O)CCSCc2cccc(c2)CSC[C@@H](C(N)=O)NC(=O)[C@H]([C@@H](C)O)NC(=O)[C@H](CCC)NC(=O)[C@H](Cc2ccc(NC(=N)N)cc2)NC(=O)[C@H](CCC(=O)O)NC1=O [Compound 323] ([Mpa][Tle]YHT[Trp(7-aza)][Nva]E[Phe(4-guanidino)][Nva]TC-NH2; linker 1-12 via mXylylene)
3,1 to 21,CCC[C@@H]1NC(=O)[C@H](Cc2c[nH]c3ncccc23)NC(=O)[C@H]([C@@H](C)O)NC(=O)[C@@H](Cc2cnc[nH]2)NC(=O)[C@H](Cc2ccc(O)cc2)NC(=O)[C@H](C(C)(C)C)NC(=O)CCSCc2cccc(c2)CSC[C@@H](C(N)=O)NC(=O)[C@H]([C@@H](C)O)NC(=O)[C@H](CCC)NC(=O)[C@H](Cc2ccc(O)cc2)NC(=O)[C@H](CCC(=O)O)NC1=O [Compound 204] ([Mpa][Tle]Y[dH]T[Trp(7-aza)][Nva]EY[Nva]TC-NH2; linker 1-12 via mXylylene)
4,1 to 21,CCC[C@@H]1NC(=O)[C@H](Cc2ccc(O)cc2)NC(=O)[C@H](C)NC(=O)[C@@](C)(NC(=O)[C@H](Cc2cccc3ccccc23)NC(=O)[C@@H](NC(=O)[C@@H]2CCCN2C(=O)[C@H](Cc2ccc(O)cc2)NC(=O)[C@@H](NC(C)=O)C(C)(C)C)[C@@H](C)O)CCC/C=C/CCC[C@@](C)(C(N)=O)NC1=O [Compound 078] (Ac-[Tle]YPT[1Nal][S5]AY[Nva][S5]-NH2; staple (E) 6-10)
5,0.1 to 1,CCC[C@@H]1NC(=O)[C@H](Cc2ccc(O)cc2)NC(=O)[C@H](CCC(=O)O)NC(=O)C2(CCCC2)NC(=O)[C@H](Cc2c[nH]c3ncccc23)NC(=O)[C@H]([C@@H](C)O)NC(=O)[C@H](Cc2c[nH]cn2)NC(=O)[C@H](Cc2ccc(O)cc2)NC(=O)[C@H](C(C)(C)C)NC(=O)CCSCc2cccc(c2)CSC[C@@H](C(N)=O)NC(=O)[C@H]([C@@H](C)O)NC1=O [Compound 299] ([Mpa][Tle]YHT[Trp(7-aza)][Ac5c]EY[Nva]TC-NH2; linker 1-12 via mXylylene)
6,0.001 to 0.1,CCC[C@H](NC(C)=O)C(=O)N[C@H]1CSCc2cccc(c2)CSC[C@@H](C(N)=O)NC(=O)[C@H]([C@@H](C)O)NC(=O)[C@H](C2CCCCC2)NC(=O)[C@H](Cc2c[nH]c3ncccc23)NC(=O)[C@H](Cc2c[nH]cn2)NC(=O)[C@H](CCC(=O)O)NC(=O)[C@H](Cc2c[nH]c3ncccc23)NC(=O)[C@H]([C@@H](C)O)NC(=O)[C@@H]2CCCN2C(=O)[C@H](Cc2ccc(O)cc2)NC(=O)[C@H](C(C)(C)C)NC1=O [Compound 152] (Ac-[Nva]C[Tle]YPT[Trp(7-aza)]EH[Trp(7-aza)][Chg]TC-NH2; linker 2-13 via mXylylene)
7,1 to 21,C=CCCC[C@]1(C)NC(=O)[C@H](CCC)NC(=O)[C@H](Cc2ccc(O)cc2)NC(=O)[C@H](C)NC(=O)[C@](C)(CC)NC(=O)[C@H](Cc2c[nH]c3ncccc23)NC(=O)[C@H]([C@@H](C)O)NC(=O)[C@@H]2CCCN2C(=O)[C@H](Cc2ccc(O)cc2)NC(=O)[C@H](C(C)(C)C)NC(=O)[C@@H](NC(C)=O)CCCC(=O)NCCCC[C@@H](C(N)=O)NC1=O [Compound 050] (Ac-[Aad][Tle]YPT[Trp(7-aza)][Iva]AY[Nva][S5]K-NH2; lactam 1-12)
8,1 to 21,CCC[C@@H]1NC(=O)[C@H](Cc2c[nH]c3ccccc23)NC(=O)[C@H]([C@@H](C)O)NC(=O)[C@@H]2CCCN2C(=O)[C@H](Cc2ccc(O)cc2)NC(=O)[C@H](C(C)(C)C)NC(=O)CCSCc2cccc(c2)CSC[C@@H](C(N)=O)NC(=O)[C@H]([C@@H](C)O)NC(=O)[C@](C)(C(C)C)NC(=O)[C@H](Cc2ccc(O)cc2)NC(=O)[C@H](C)NC1=O [Compound 177] ([Mpa][Tle]YPTW[Nva]AY[αMeV]TC-NH2; linker 1-12 via mXylylene)
9,0.1 to 1,CCC[C@@H]1NC(=O)[C@H](Cc2c[nH]c3ncccc23)NC(=O)[C@H]([C@@H](C)O)NC(=O)[C@H](Cc2c[nH]cn2)NC(=O)[C@H](Cc2ccc(O)cc2)NC(=O)[C@H](C(C)(C)C)NC(=O)CCSCc2cccc(c2)CSC[C@@H](C(N)=O)NC(=O)[C@H]([C@@H](C)O)NC(=O)[C@H](CCC)NC(=O)[C@H](Cc2ccc(O)cc2)NC(=O)[C@H](CCO)NC1=O [Compound 274] ([Mpa][Tle]YHT[Trp(7-aza)][Nva][hSer]Y[Nva]TC-NH2; linker 1-12 via mXylylene)

# Reference: patent US11814444B2, “Cyclic polypeptides for PCSK9 inhibition” (Ra Pharmaceuticals, Inc., priority 2018, dated 2023)
